How the values were obtained:
[1] = target: human mGluR5a receptor (Homo sapiens, UniProt P41594); assay: Cell-based functional assay (Ca2+ mobilization, FDSS), potentiation of glutamate EC20 response; details: H10H cell line; for Emax: maximum % effect in the concentration-response curve as percent of maximal glutamate response, glutamate EC20; for EC50: potentiation in presence of glutamate EC20, concentration in mol/L
Description: Human mGluR5a cDNA in pCMV6-XL6 mammalian expression plasmid was purchased from OriGene Technologies, Inc. (catalogue number SC326357) and subcloned into pcDNA3.1(−). Human embryonic kidney (HEK)293A cells were then transfected with human mGluR5a pcDNA3.1(−) using LipofectAmine-2000 (Invitrogen) and monoclones were selected and tested for functional response using a Ca^2+ mobilization assay. Monoclones were named for the species (“H” for human) plus the location on the plate (e.g. “10H”).
HEK cells transfected with the human mGluR5a receptor (H10H or H12H cell line) were plated at 15,000 cells/well in clear-bottomed poly-D-lysinecoated assay plates (BD Falcon) in glutamate-glutamine-free growth medium and incubated overnight at 37° C. and 5% CO2. Cell-lines used were either the H10H or H12H cell-lines expressing the human mGluR5 receptor. The following day, the growth medium was removed and the cells were washed with assay buffer containing 1× Hank's balanced salt solution (Invitrogen, Carlsbad, Calif.), 20 mM HEPES, 2.5 mM probenecid, pH 7.4 and left with 20 μL of this reagent. Following this step, the cells were loaded with calcium indicator dye, fluo-4 AM, to a final concentration of 2 μM and incubated for 40-45 min at 37° C. The dye solution was removed and replaced with assay buffer. Cell plates were held for 10-15 min at room temperature and were then loaded into the Functional Drug Screening System 6000 (FDSS 6000, Hamamatsu, Japan).
After establishment of a fluorescence baseline for about 3 seconds, the compounds of the present invention were added to the cells, and the response in cells was measured. 2.3 minutes later an EC20 concentration of the mGluR5 receptor agonist glutamate was added to the cells, and the response of the cells was measured for about 1.7 minutes. All test compounds were dissolved and diluted to a concentration of 10 mM in 100% DMSO and then serially diluted into assay buffer for a 2× stock solution in 0.6% DMSO; stock compounds were then added to the assay for a final DMSO concentration of 0.3% after the first addition to the assay well. Calcium fluorescence measures were recorded as fold over basal fluorescence; raw data was then normalized to the maximal response to glutamate. Potentiation of the agonist response of the mGluR5 receptor in the present invention was observed as an increase in response to submaximal concentrations of glutamate in the presence of compound compared to the response to glutamate in the absence of compound.
The concentration-response curves of compounds of the present invention, obtained in the presence of EC20 of mGluR5 receptor agonist glutamate to determine positive allosteric modulation, were generated using Microsoft Excel with IDBS XLFit add-ins. The raw data file containing all time points was used as the data source in the analysis template. This was saved by the FDSS as a tab-delimited text file. Data were normalized using a static ratio function (F/F0) for each measurement of the total 350 values per well divided by each well's initial value. Data was then reduced as to peak amplitudes (Max Initial Min) using a time range that starts approximately 1 second after the glutamate EC20 addition and continues for approximately 40 seconds. This is sufficient time to capture the peak amplitude of the cellular Calcium response. Individual amplitudes were expressed as % EMax by multiplying each amplitude by 100 and then dividing the product by the mean of the amplitudes derived from the glutamate ECMax-treated wells. pEC50 values for test compounds were generated by fitting the normalized values versus the log of the test compound concentration (in mol/L) using a 4 parameter logistic equation where none of the parameters were fixed. Each of the three values collected at each concentration of test compound were weighted evenly. Individual values falling outside the 95% prediction limits of the curve fit were automatically excluded from the fit. […]

[2] = test system: amphetamine-induced hyperlocomotion; assay: Reversal of amphetamine-induced hyperlocomotion in rats; assay type: in vivo, male Sprague-Dawley rats; details: 10 mg/kg p.o.; amphetamine 1 mg/kg s.c.; intervals 13-24; rat
Experimental: The study was carried out using male Sprague-Dawley rats weighing 225 g-275 g, between 2-3 months old (Harlan, Inc., Indianapolis, Ind.). They were kept in the animal care facility certified by the American Association for the Accreditation of Laboratory Animal Care (AALAC) under a 12-hour light/dark cycle (lights on: 6 a.m.; lights off: 6 p.m.) and had free access to food and water. The experimental protocols performed during the light cycle were approved by the Institutional Animals Care and Use Committee of Vanderbilt University and conformed to the guidelines established by the National Research Council Guide for the Care and Use of Laboratory Animals
Locomotor activity was assessed as mean distance traveled (cm) in Smart Open Field locomotor activity test chambers (Hamilton-Kinder, San Diego, Calif.) with 16×16 photobeams with chambers measuring 43.2 cm (Length)×43.2 cm (Width)×30.5 cm (Height) (Med Associates, St. Albans, Vt.). The animals were habituated for 30 min and then dosed with vehicle or test compound. The rats were then placed into cages. At 60 min, all rats were injected subcutaneously with 1 mg/kg amphetamine or vehicle and then monitored for an additional 60 min. Animals are monitored for a total of 120 minutes.
Data are expressed as the mean (±SEM) distance traveled recorded in 5 min intervals over the test period. The data was analyzed using repeated measures analysis of variance (ANOVA) followed by post-hoc testing using Dunnett's test, when appropriate. A difference was considered significant when p≦0.05. The data for the dose-response studies were analyzed by a between-group analysis of variance. If there was a main effect of dose, then each dose group was compared with the vehicle amphetamine group. The calculations were performed using JMP IN 8 (SAS Institute, Cary, N.C.) statistical software and graphed using SigmaPlot9 (Saugua, Mass.).
Amphetamine sulfate was obtained from Sigma (Cat#A5880-1G; St. Louis, Mo.) and 10 mg was dissolved in 10 ml of water. […]

Sequence of human mGluR5a receptor (P41594 21-1180 isoform P41594-2 limits assumed): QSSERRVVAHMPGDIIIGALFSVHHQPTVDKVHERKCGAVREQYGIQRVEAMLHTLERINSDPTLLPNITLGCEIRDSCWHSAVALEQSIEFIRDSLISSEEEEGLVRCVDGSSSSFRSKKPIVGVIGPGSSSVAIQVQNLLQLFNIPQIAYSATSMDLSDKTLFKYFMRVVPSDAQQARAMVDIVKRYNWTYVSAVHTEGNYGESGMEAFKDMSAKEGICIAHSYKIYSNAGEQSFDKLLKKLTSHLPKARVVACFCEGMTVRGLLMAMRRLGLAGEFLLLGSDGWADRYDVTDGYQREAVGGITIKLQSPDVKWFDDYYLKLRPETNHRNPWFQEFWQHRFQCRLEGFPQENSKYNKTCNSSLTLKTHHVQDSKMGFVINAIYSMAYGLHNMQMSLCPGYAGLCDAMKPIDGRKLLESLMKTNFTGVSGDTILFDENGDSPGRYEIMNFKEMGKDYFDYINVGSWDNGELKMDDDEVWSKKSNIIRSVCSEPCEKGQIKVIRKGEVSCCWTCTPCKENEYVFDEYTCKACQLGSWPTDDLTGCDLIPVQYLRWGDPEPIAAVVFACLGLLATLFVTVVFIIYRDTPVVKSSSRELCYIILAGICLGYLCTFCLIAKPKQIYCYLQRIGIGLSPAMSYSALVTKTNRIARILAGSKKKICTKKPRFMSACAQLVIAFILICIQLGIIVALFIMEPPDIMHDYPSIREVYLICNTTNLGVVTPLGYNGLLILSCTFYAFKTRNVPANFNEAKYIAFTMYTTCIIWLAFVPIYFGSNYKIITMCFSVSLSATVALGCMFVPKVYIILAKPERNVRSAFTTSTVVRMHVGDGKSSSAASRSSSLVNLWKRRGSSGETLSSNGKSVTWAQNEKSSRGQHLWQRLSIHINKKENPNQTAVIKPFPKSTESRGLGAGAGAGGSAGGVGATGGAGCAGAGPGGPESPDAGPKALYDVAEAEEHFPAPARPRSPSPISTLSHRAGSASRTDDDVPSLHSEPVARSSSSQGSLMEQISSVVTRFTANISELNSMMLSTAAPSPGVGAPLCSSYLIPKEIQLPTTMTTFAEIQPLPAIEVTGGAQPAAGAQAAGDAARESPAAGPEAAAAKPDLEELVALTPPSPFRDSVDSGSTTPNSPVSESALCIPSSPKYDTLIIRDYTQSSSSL

Structure (SMILES)	Emax [1]	EC50 [1]	% Reversal of amphetamine-induced hyperlocomotion [2]	melting point
CN(C)c1cccc(N2CCn3nc(OCc4ccccc4)cc3C2=O)n1 [Example B15, 2-(benzyloxy)-5-(6-(dimethylamino)pyridin-2-yl)-6,7-dihydropyrazolo[1,5-a]pyrazin-4(5H)-one]	61%	25.7 nM	32%	115.3 °C
Cc1nc(N2CCn3nc(OCc4ccccc4)cc3C2=O)ccc1F [Example B17, 2-(benzyloxy)-5-(5-fluoro-6-methylpyridin-2-yl)-6,7-dihydropyrazolo[1,5-a]pyrazin-4(5H)-one]	55%	123 nM	14%	167.1 °C
O=C1c2cc(OCc3cccc(F)c3)nn2CCN1c1ccc(F)cc1 [Example B26, 2-((3-fluorobenzyl)oxy)-5-(4-fluorophenyl)-6,7-dihydropyrazolo[1,5-a]pyrazin-4(5H)-one]	45%	95.5 nM	25%	116.4 °C
Cc1cccc(N2CCCn3nc(OCc4ccccc4)cc3C2=O)n1 [Example B52]	48%	269 nM		142.2 to 142.3 °C
O=C1c2cc(OCc3ccccc3)nn2CCCN1CC1CC1 [Example B53, 2-(benzyloxy)-5-(cyclopropylmethyl)-5,6,7,8-tetrahydro-4H-pyrazolo[1,5-a][1,4]diazepin-4-one]	23%	1320 nM		68.1 to 68.4 °C
COc1c(Cl)cccc1CN1CCn2nc(OCc3ccccc3)cc2C1=O [Example B57, 2-(benzyloxy)-5-(3-chloro-2-methoxybenzyl)-6,7-dihydropyrazolo[1,5-a]pyrazin-4(5H)-one]	42%	75.9 nM		232.7 °C
O=C1c2cc(OCc3ccccc3)nn2CCN1Cc1ccccc1 [Example B59]	36%	87.1 nM		103.8 °C
COc1cc(CN2CCn3nc(OCc4ccccc4)cc3C2=O)ccc1F [Example B69]	63%	692 nM		115.1 °C
COc1cccc(F)c1CN1CCn2nc(OCc3ccccc3)cc2C1=O [Example B70]	52%	427 nM		162.2 °C
O=C1c2cc(OCc3ccccc3)nn2CCN1CC1CC1(F)F (stereo not drawn) [Example B72]	21%	> 30200 nM		107.4 °C

From patent US8901125B2, “Substituted bicyclic alkoxy pyrazole analogs as allosteric modulators of mGluR5 receptors” (Vanderbilt University, priority 2012, dated 2014)
